Experimental data published in US9328115B2, “Process for preparing meropenem trihydrate” (DAEWOONG PHARMACEUTICAL CO., LTD., priority 2012, dated 2016).

Experiment: Water-solubility measurement at 26° C.
Assay type: physicochemical
Conditions: in water, measured at 26° C.
Procedure: The water-solubilities of the methanol solvate of meropenem obtained in the above as well as meropenem trihydrate were measured at 26° C.

Structure (SMILES)	water-solubility
C[C@@H](O)[C@H]1C(=O)N2C(C(=O)O)=C(S[C@@H]3CN[C@H](C(=O)N(C)C)C3)[C@H](C)[C@H]12 [meropenem trihydrate, (4R,5S,6S)-3-((3S,5S)-5-(dimethylcarbamoyl)pyrrolidin-3-ylthio)-6-((R)-1-hydroxyethyl)-4-methyl-7-oxo-1-azabicyclo[3.2.0]hept-2-ene-2-carboxylic acid]	16.4 mg/mL
C[C@@H](O)[C@H]1C(=O)N2C(C(=O)O)=C(S[C@@H]3CN[C@H](C(=O)N(C)C)C3)[C@H](C)[C@H]12 [methanol solvate of meropenem, (4R,5S,6S)-3-((3S,5S)-5-(dimethylcarbamoyl)pyrrolidin-3-ylthio)-6-((R)-1-hydroxyethyl)-4-methyl-7-oxo-1-azabicyclo[3.2.0]hept-2-ene-2-carboxylic acid]	57.6 mg/mL
